Measured values reported in US6054441A, “Oxypurine nucleosides and their congeners, and acyl derivatives thereof, for improvement of hematopoiesis” (priority 1995, dated 2000).

Experiments:
[1] = system: hematopoietic recovery after cyclophosphamide; assay: Hematopoietic recovery after cyclophosphamide (Example 48); format: in vivo, Balb/C mice; details: day 7; vs controls
Experimental: Cyclophosphamide (CP) (275 mg/kg, i.p.) was administered to 36 Balb/C female mice weighing approximately 20 grams each. Twenty four hours later and each day thereafter for a total of 4 or 6 days, mice were given a 0.4 ml i.p. injection of either physiological saline (controls), palmitoyldeoxyinosine (2.5 μmoles/mouse), or palmitoylxanthosine (2.5 μmoles/mouse). On days 5 and 7 following CP administration 6 of the 12 animals in each of the 3 groups were bled and then sacrificed by cervical dislocation. Spleens were removed and weighed, and complete blood cell counts performed.

[2] = system: hematopoietic recovery after cyclophosphamide; assay: Hematopoietic recovery after cyclophosphamide (Example 51); format: in vivo, Balb/C mice; details: day 5; 2 μmoles/mouse
Experimental: Cyclophosphamide (CP) (275 mg/kg, i.p.) was administered to 88 Balb/C female mice weighing approximately 20 grams each. Twenty-four hours later and each day thereafter mice were given a 0.4 ml i.p. injection of either Tween-80 (0.2%) (controls), 3'-O-palmitoyldeoxyguanosine (2 μmoles/mouse), butyryldeoxyguanosine (2 μmoles/mouse), palmitoyl-N-isobutyryldeoxyguanosine (2 μmoles/mouse), lauryldeoxyguanosine (2 μmoles/mouse), octanoyldeoxyguanosine (2 μmoles/mouse), and palmitoyldeoxyguanosine (2 μmoles/mouse). On days 5 and 7 following CP administration 6 or 7 animals in each of the 7 groups were bled and then sacrificed by cervical dislocation. Spleens were removed and weighed, and complete blood cell counts performed.

[3] = system: blood cell counts after cyclophosphamide; assay: Hematopoietic recovery after cyclophosphamide (Example 63); format: in vivo, Balb-C mice; details: for Neutrophils / Platelets / WBC / Spleen: 7 days after CP; for Spleen: 25 mg/kg TriPdG or molar equivalent
Experimental: Fifty-eight female Balb-C mice weighing approximately 20 grams each received a single injection of cyclophosphamide (250 mg/kg, i.p.), and were then distributed into a vehicle control group (0.2% Tween-80+7.5% DMSO in saline; n=12) or one of five treatment groups:
Vehicle or treatment agents were administered to mice once daily for five days at a volume of 0.4 ml by i.p. injection. TriPdG was given at a dose of 25 mg/kg/treatment. The other four agents were given in doses that are the molar equivalent of 25 mg/kg/treatment of TriPdG. On days 5 and 7 following CP administration half of the animals from each of the six groups were bled and then sacrificed by cervical dislocation. Five untreated mice were also bled and sacrificed to provide data on normal (basal) values. Spleens were removed and weighed, and complete blood cell counts performed.

FDCPmix cells = assay: Proliferation of FDCPmix cells, MTT assay (Example 69); format: cell-based; details: for inhibition of proliferation: 10 micrograms/ml down; for activity at 0.01 µg/mL / activity at 0.039 µg/mL / activity at 0.156 µg/mL / activity at 0.625 µg/mL / activity at 2.5 µg/mL / activity at 10 µg/mL: 48 h, read-out: Cell proliferation
Experimental: The FDCPmix cell line was used as a suitable in vitro model for predicting the effects of hematopoietic factors on pluripotential stem cells. These cells can be maintained in an-undifferentiated state in the presence of IL-3 or undergo multi-lineage development in the presence of specific hematopoietic growth factors.
This level of proliferation (100%) served as the control value. Inhibition of proliferation by test compounds was represented as a percent of control.
FDCPmix cells were plated at a density of 5×10^4 cells per well in 96-well plates (5×10^5 /ml) using IMDM medium plus 10% fetal bovine serum. […] Test compounds were added at a decreasing concentrations ranging from 10 micrograms/ml down to 1 nanogram/ml. The test compounds included: 3',5'-O-N^2 -tripalmitoyl-2'-deoxyguanosine, 3',5'-di-O-palmitoyl-2'-deoxyguanosine, 3',5'-O-N^2 -trioctanoyl-2'-deoxyguanosine, 3',5'-di-O-octanoyl-2'-deoxyguanosine, and 3',5'-O-N^2 -trioleyl-2'-deoxyguanosine.

[4] = system: hematopoietic recovery after cyclophosphamide; assay: Hematopoietic recovery after cyclophosphamide (Example 47); format: in vivo, Balb/C mice
Experimental: Cyclophosphamide (CP) (275 mg/kg, i.p.) was administered to 48 Balb/C female mice weighing approximately 20 grams each. Twenty-four hours later and each day thereafter for a total of 6 days, mice were given a 0.4 ml i.p. injection of either physiological saline (controls), benzoylguanosine (2.5 μmoles/mouse/day in 0.2% Tween 80), or palmitoylguanosine (2.5 μmoles/mouse/day in 0.2% Tween 80). On days 7 and 10 following CP administration 8 animals from each of the 3 groups were bled and then were sacrificed by cervical dislocation. Spleens were removed and weighed, and complete blood cell counts performed.

[5] = system: hematopoiesis in normal mice; assay: Hematopoiesis in normal mice (Example 56); format: in vivo, Balb/C mice; details: femoral bone marrow; day 5; 2.6 μmoles/mouse, 4 days
Experimental: Normal Balb/C female mice weighing approximately 20 grams each were given a daily 0.4 ml i.p. injection of either physiological saline (controls), palmitoylguanosine (2.6 μmoles/mouse), palmitoyldeoxyguanosine (2.6 μmoles/mouse), monopalmitoylguanosine 2',3'-acyclic dialcohol (2.6 μmoles/mouse), and palmitoyl-8-bromoguanosine (2.6 μmoles/mouse) for 4 days. On the fifth day all 3 animals in each of the 5 groups were bled and then sacrificed by cervical dislocation. Spleens were removed and weighed, and complete blood cell counts performed. Femoral bone marrow from each mouse was collected and a differential cell count performed on marrow smears.

| Compound | Neutrophils [3] | Platelets [3] [K/μl] | WBC [3] | Spleen [3] [mg] | inhibition of proliferation (FDCPmix cells) | activity at 0.01 µg/mL (FDCPmix cells) [%] | activity at 0.039 µg/mL (FDCPmix cells) [%] | activity at 0.156 µg/mL (FDCPmix cells) [%] | activity at 0.625 µg/mL (FDCPmix cells) [%] | activity at 2.5 µg/mL (FDCPmix cells) [%] | activity at 10 µg/mL (FDCPmix cells) [%] | other results |
| --- | --- | --- | --- | --- | --- | --- | --- | --- | --- | --- | --- | --- |
| Palmitoylxanthosine | – | – | – | – | – | – | – | – | – | – | – | Neutrophils [1]: significantly increased; spleen weight [1]: significantly increased; total leukocytes [1]: significantly increased |
| CCCCCCCCCCCCCCCC(=O)O[C@H]1C[C@H](n2cnc3c(=O)[nH]c(N)nc32)O[C@@H]1CO [3'-O-palmitoyldeoxyguanosine, 3'-O-Palmitoyl-2'-deoxyguanosine] | – | – | – | – | – | – | – | – | – | – | – | spleen weight [2]: significantly elevated; total neutrophil counts [2]: significantly elevated |
| CCCCCCCCCCCCCCCCCC(=O)Nc1nc2c(ncn2[C@H]2C[C@H](OC(=O)CCCCCCCCCCCCCCCCC)[C@@H](COC(=O)CCCCCCCCCCCCCCCCC)O2)c(=O)[nH]1 [TriSdG, 3',5'-O-N^2-tristearyl-2'-deoxyguanosine] | 5.4 ± .5 K/μl | 498 ± 27 | 7.6 ± .4 K/μl | 85 ± 9 | – | – | – | – | – | – | – | – |
| CCCCCCCC(=O)Nc1nc2c(ncn2[C@H]2C[C@H](OC(=O)CCCCCCC)[C@@H](COC(=O)CCCCCCC)O2)c(=O)[nH]1 [TriOctdG, 3',5'-O-N^2-trioctanoyl-2'-deoxyguanosine] | – | – | – | – | little or no inhibitory effects | 87 ± 4 | 85 ± 2 | 89 ± 6 | 86 ± 2 | 96 ± 0.1 | 107 ± 1 | – |
| CCCCCCCC/C=C\CCCCCCCC(=O)Nc1nc2c(ncn2[C@H]2C[C@H](OC(=O)CCCCCCC/C=C\CCCCCCCC)[C@@H](COC(=O)CCCCCCC/C=C\CCCCCCCC)O2)c(=O)[nH]1 [TriOdG, 3',5'-O-N^2-trioleyl-2'-deoxyguanosine] | 2.7 ± .4 K/μl | 741 ± 54 | 5.2 ± .4 K/μl | 59 ± 5 | little or no inhibitory effects | 92 ± 5 | 91 ± 5 | 92 ± 5 | 98 ± 6 | 80 ± 2 | 110 ± 3 | lymphocyte counts ([3]; day 7 after CP, vs control): increased both platelet and lymphocyte counts |
| Benzoylguanosine | – | – | – | – | – | – | – | – | – | – | – | Neutrophils ([4]; day 7, 2.5 μmoles/mouse/day): significantly elevated; spleen weight ([4]; day 7, 2.5 μmoles/mouse/day): significantly elevated; total white blood cells ([4]; day 7, 2.5 μmoles/mouse/day): significantly elevated; platelet number ([4]; day 10): significantly greater |
| CCCCCCCCCCCCCCCC(=O)OC[C@H]1O[C@@H](n2cnc3c(=O)[nH]c(NC(=O)C(C)C)nc32)C[C@@H]1O [NibuPdG, N^2-isobutyryl-5'-O-palmitoyl-2'-deoxyguanosine] | 2.2 ± .5 K/μl | 649 ± 23 | 4.4 ± .5 K/μl | 69 ± 6 | – | – | – | – | – | – | – | spleen weight [2]: significantly elevated; total neutrophil counts [2]: significantly elevated |
| CCCCCCCC(=O)OC[C@H]1O[C@@H](n2cnc3c(=O)[nH]c(N)nc32)C[C@@H]1OC(=O)CCCCCCC [DiOctdG, 3',5'-di-O-octanoyl-2'-deoxyguanosine] | – | – | – | – | little or no inhibitory effects | 84 ± 2 | 86 ± 1 | 84 ± 6 | 93 ± 1 | 78 ± 2 | 100 ± 0.3 | – |
| CCCCCCCCCCCCCCCC(=O)OC[C@H]1O[C@@H](n2c(Br)nc3c(=O)[nH]c(N)nc32)[C@H](O)[C@@H]1O [palmitoyl-8-bromoguanosine] | – | – | – | – | – | – | – | – | – | – | – | number of myelocytes [5]: significantly greater |
